Laboratory results published in ChEMBL document CHEMBL6115010, “Targeting glioma with heteroaromatic alkaloids: A review of potential therapeutics” (Bioorg Med Chem, 2025).
Converted amounts (≈) assume the structure as drawn.

Columns and labels:
[1] = Cytotoxicity against human GSC-3 cells assessed as reduction in cell viability incubated for 72 hrs by MTS assay; assay type: functional, cell-based; conditions: GSC-3, 72 h
[2] = Growth inhibition of human U373 MG cells measured after 72 hrs by MTT assay; assay type: functional, U-373MG ATCC
[3] = test system: Hs68; experiment: Growth inhibition of human Hs68 cells measured after 72 hrs by MTT assay; assay type: functional
[4] = test system: U-87 MG; experiment: Growth inhibition of human U-87 MG cells measured after 72 hrs by MTT assay; assay type: functional, U-87MG ATCC
[5] = test system: CCF-STTG1; experiment: Cytotoxicity against human CCF-STTG1 cells assessed as reduction in cell viability incubated for 48 hrs by MTT assay; assay type: functional, cell-based; conditions: CCF-STTG1, 48 h
[6] = Cytotoxicity against human CHG-5 cells assessed as reduction in cell viability incubated for 48 hrs by MTT assay; assay type: functional, cell-based; conditions: CHG-5, 48 h
[7] = Cytotoxicity against human SHG-44 cells assessed as reduction in cell viability incubated for 48 hrs by MTT assay; assay type: functional, cell-based; conditions: SHG-44, 48 h
[8] = test system: U-251; experiment: Cytotoxicity against human U-251MG cells assessed as reduction in cell viability incubated for 48 hrs by MTT assay; assay type: functional, cell-based; conditions: U-251, 48 h
[9] = test system: SF-268; experiment: Cytotoxicity against human SF-268 cells assessed as reduction in cell viability incubated for 72 hrs by SRB assay; assay type: functional, cell-based; conditions: SF-268, 72 h
[10] = test system: SF-295; experiment: Cytotoxicity against human SF-295 cells assessed as reduction in cell growth incubated for 96 hrs by MTT assay; assay type: functional, cell-based; conditions: SF-295, 96 h
[11] = test system: SH-SY5Y; experiment: Cytotoxicity against human SH-SY5Y cells; assay type: functional, cell-based
[12] = Cytotoxicity against human CHG-5 cells assessed as reduction in cell growth incubated for 48 hrs by MTT assay; assay type: functional, cell-based; conditions: CHG-5, 48 h
[13] = test system: SH-SY5Y; experiment: Cytotoxicity against human SH-SY5Y cells assessed as reduction in cell growth incubated for 48 hrs by MTT assay; assay type: functional, cell-based
[14] = Cytotoxicity against human SHG-44 cells assessed as reduction in cell growth incubated for 48 hrs by MTT assay; assay type: functional, cell-based; conditions: SHG-44, 48 h
[15] = test system: U-251; experiment: Cytotoxicity against human U-251MG cells assessed as reduction in cell growth incubated for 48 hrs by MTT assay; assay type: functional, cell-based; conditions: U-251, 48 h
[16] = Cytotoxicity against human U-343MG cells assessed as reduction in cell growth incubated for 48 hrs by MTT assay; assay type: functional, cell-based
[17] = Cytotoxicity against human GL15 cells assessed as reduction in cell growth incubated for 48 hrs by MTT assay; assay type: functional, cell-based; conditions: GL15, 48 h
[18] = test system: U-87 MG; experiment: Antiproliferative activity against human U-87 MG cells assessed as reduction in cell viability at 100 uM incubated for 72 hrs by Prestoblue-reagent based assay relative to control; assay type: functional, U-87MG ATCC
[19] = test system: CCF-STTG1; experiment: Cytotoxicity against human CCF-STTG1 cells assessed as reduction in cell growth incubated for 24 hrs by MTT assay; assay type: functional, cell-based; conditions: CCF-STTG1, 24 h
[20] = Cytotoxicity against human CHG-5 cells assessed as reduction in cell growth incubated for 24 hrs by MTT assay; assay type: functional, cell-based; conditions: CHG-5, 24 h
[21] = Cytotoxicity against human SHG-44 cells assessed as reduction in cell growth incubated for 24 hrs by MTT assay; assay type: functional, cell-based; conditions: SHG-44, 24 h
[22] = Cytotoxicity against human CHG-5 cells assessed as reduction in cell viability incubated for 24 hrs by MTT assay; assay type: functional, cell-based; conditions: CHG-5, 24 h
[23] = Cytotoxicity against human SHG-44 cells assessed as reduction in cell viability incubated for 24 hrs by MTT assay; assay type: functional, cell-based; conditions: SHG-44, 24 h
[24] = test system: U-251; experiment: Cytotoxicity against human U-251MG cells assessed as reduction in cell viability incubated for 24 hrs by MTT assay; assay type: functional, cell-based; conditions: U-251, 24 h
[25] = test system: CCF-STTG1; experiment: Cytotoxicity against human CCF-STTG1 cells assessed as reduction in cell viability incubated for 24 hrs by MTT assay; assay type: functional, cell-based; conditions: CCF-STTG1, 24 h
[26] = Cytotoxicity against human U373 MG cells assessed as reduction in cell growth incubated for 24 hrs by MTT colorimetric assay; assay type: functional, cell-based, U-373MG ATCC
[27] = test system: SW1088; experiment: Cytotoxicity against human SW1088 cells assessed as reduction in cell growth incubated for 24 hrs by MTT colorimetric assay; assay type: functional, cell-based; conditions: SW1088, 24 h
[28] = Toxicity in ip dosed B6D2F1 mouse assessed as maximum tolerated dose measured after 28 days; assay type: organism-based; conditions: in vivo, time 28 day
[29] = test system: GAMG; experiment: Antiproliferative activity against human GAMG cells assessed as reduction in cell viability incubated for 48 hrs by MTS reagent based assay; assay type: functional
[30] = Cytotoxicity against rat ASK cells assessed as reduction in cell growth by SRB assay; assay type: functional; conditions: read-out: ED50 (the source's name)
[31] = test system: H4; experiment: Antiproliferative activity against human H4 cells assessed as reduction in cell viability incubated for 72 hrs by Prestoblue-reagent based assay; assay type: functional; conditions: H4, 72 h

Question: Which IC50 [1] does the source give for `COc1cc2c(c(Oc3ccc(CO)cc3)c1OC)C[C@H]1c3c(cc(OC)c(OC)c3-2)CCN1C` here?
Answer: 15.2 µg/mL (≈ 31.9 µM)

Question: Which GI50 [2] does the source give for `CO[C@@H]1C=C[C@@]23c4cc5c(cc4C(C)O[C@H]2CN(C)[C@H]3C1)OCO5` (some centres not stated) here?
Answer: 1 µM

Question: And the GI50 [3]?
Answer: 51 µM

Question: And the GI50 [4]?
Answer: 28 µM

Question: Which IC50 [5] does the source give for `CC(=O)O[C@H]1C=C[C@]23c4cc5c(cc4[C@H](OC(C)=O)N(C[C@H]2O)[C@@H]3C1)OCO5` here?
Answer: 27.1 µM

Question: And the IC50 [6]?
Answer: 30.1 µM

Question: What about the IC50 [7] of the same compound?
Answer: 27.1 µM

Question: And the IC50 [8]?
Answer: 17.4 µM

Question: With `C/C=C(\C)[C@H](O)[C@H](C)/C=C(C)/C=C(\C)C/C(C)=C/Cc1nc(OC)c(OC)c(OC)c1C` as the compound, how does the IC50 [9] read?
Answer: 10 µM

Question: With `COc1cc2c(cc1OC)[C@H](O)[C@@H]1c3c(cc4c(c3-2)OCO4)CC[N@@+]1(C)[O-]` as the compound, how does the IC50 [10] read?
Answer: 1.62 µg/mL (≈ 4.36 µM)

Question: Which IC50 [5] does the source give for `COc1cc2c(cc1O)[C@H](OC(C)=O)N1C[C@@H](O)[C@]23C=C[C@H](OC)C[C@@H]13` here?
Answer: 29.4 µM

Question: And the IC50 [6]?
Answer: 29.4 µM

Question: What about the IC50 [7] of the same compound?
Answer: 27.1 µM

Question: And the IC50 [8]?
Answer: 17.4 µM

Question: With `N#Cc1cnc2cccc(O)c2c1O` as the compound, how does the IC50 [11] read?
Answer: 62.6 µM

Question: For `COc1cc2c(c(Oc3ccc(C=O)cc3)c1OC)-c1c(OC)c(OC)cc3ccnc(c13)C2=O`, which IC50 [1] is on record?
Answer: 15.5 µg/mL (≈ 32.8 µM)

Question: For `CN1C(=O)C(=O)NC[C@@H]1CNc1ccc(C(=O)O)cc1`, which IC50 [11] is on record?
Answer: 54.3 µM

Question: What does the source list for `CN[C@H]1C[C@H](OC)C=C[C@@]12C(=O)N(CCCC(=O)O)Cc1cc3c(cc12)OCO3`?
Answer: IC50 [12]: 12.2 µM; IC50 [13]: 13.7 µM; IC50 [14]: 10.8 µM; IC50 [15]: 11.3 µM; IC50 [16]: 12.2 µM; IC50 [17]: 11.4 µM

Question: For `COc1ccc2c3c([nH]c2c1)[C@@H](C)NCC3`, which inhibition at 100 µM [18] is on record?
Answer: 38%

Question: For `COc1ccc2c(c1OC)-c1c(OC)c(O)cc3c1[C@H](C2)[N@+](C)([O-])CC3`, which IC50 [19] is on record?
Answer: 81.8 µM

Question: And the IC50 [20]?
Answer: 83.7 µM

Question: What about the IC50 [21] of the same compound?
Answer: 83.7 µM

Question: Which IC50 [5] does the source give for `CO[C@H]1C=C[C@]23c4cc5c(cc4[C@H](OC(C)=O)N(C[C@H]2O)[C@@H]3C1)OCO5` here?
Answer: 27.1 µM

Question: What about the IC50 [6] of the same compound?
Answer: 30 µM

Question: What about the IC50 [7] of the same compound?
Answer: 28.3 µM

Question: And the IC50 [8]?
Answer: 15.8 µM

Question: Which IC50 [22] does the source give for `CC(=O)O[C@@H]1C2C3C[C@H]4C5=Nc6ccccc6[C@]51C[C@@H]2[N+]4([O-])[C@@H](C)[C@@H]3C(=O)O` (some centres not stated) here?
Answer: 12.1 µM

Question: What about the IC50 [23] of the same compound?
Answer: 9.2 µM

Question: What about the IC50 [24] of the same compound?
Answer: 9.7 µM

Question: What about the IC50 [25] of the same compound?
Answer: 11.4 µM

Question: For `CO[C@@H]1C=C[C@@]23c4cc5c(cc4CN(CCc4ccccc4)[C@@H]2CN(C)[C@H]3C1)OCO5`, which IC50 [12] is on record?
Answer: 17.7 µM

Question: And the IC50 [13]?
Answer: 15.8 µM

Question: What about the IC50 [14] of the same compound?
Answer: 15.4 µM

Question: What about the IC50 [15] of the same compound?
Answer: 18.4 µM

Question: What about the IC50 [16] of the same compound?
Answer: 14.6 µM

Question: And the IC50 [17]?
Answer: 18.9 µM

Question: Which IC50 [8] does the source give for `[O-][N+]12CCc3cc(O)c(O)c(c31)-c1cc3c(cc1C2)OCO3` (single isomer, unassigned; (+)) here?
Answer: 93.7 µM

Question: With `O=C1c2cccnc2-c2nccc3c2c1nc1ccccc13` [ASCIDIDEMIN] as the compound, how does the IC50 [26] read?
Answer: 0.5 µM

Question: What about the IC50 [27] of the same compound?
Answer: 0.6 µM

Question: What about the MTD at 672 h [28] of the same compound?
Answer: 40 mg/kg

Question: With `O=P1(N(CCCl)CCCl)NCCCO1` (configuration not stated) [CYCLOPHOSPHAMIDE ANHYDROUS] as the compound, how does the IC50 [29] read?
Answer: 50.9 µM

Question: With `COc1cc2c(cc1OC)-c1c3c(cc4ccnc(c14)C2=O)OCO3` [DICENTRINONE] as the compound, how does the EC50 [30] read?
Answer: 10.2 µg/mL (≈ 30.4 µM)

Question: What does the source list for `COc1ccc2c3c([nH]c2c1)C(C)=NCC3` [HARMALINE]?
Answer: IC50 [31]: 19.6 µM; inhibition at 100 µM [18]: 14%

Question: With `CC1=NCCc2c1[nH]c1cc(O)ccc21` [HARMALOL] as the compound, how does the IC50 [31] read?
Answer: 23.7 µM

Question: And the inhibition at 100 µM [18]?
Answer: 37%

Question: Which IC50 [11] does the source give for `Cc1cc2nc3[nH]c(=O)[nH]c(=O)c3nc2cc1C` [LUMICHROME] here?
Answer: 75.2 µM

Question: For `c1ccc2c(c1)[nH]c1cnccc12` [NORHARMANE], which IC50 [31] is on record?
Answer: 49 µM

Question: Which EC50 [30] does the source give for `COc1cc(OC)c2c(c1)C(=O)c1nccc3cc4c(c-2c13)OCO4` [OXODISCOGUATTINE] here?
Answer: 2.11 µg/mL (≈ 6.29 µM)

Question: With `C/C=C(\C)[C@H](O)[C@H](C)/C=C(C)/C=C/C/C(C)=C/Cc1nc(OC)c(OC)c(O)c1C` [PIERICIDIN A] as the compound, how does the IC50 [9] read?
Answer: 68.1 µM

Question: For `COc1c(OC)c(OC)c2c3c(cc4ccccc42)NC(=O)c13` [PIPEROLACTAM C], which EC50 [30] is on record?
Answer: 12.8 µg/mL (≈ 41.3 µM)

Question: With `CC[C@]1(O)C[C@H]2CN(CCc3c([nH]c4ccccc34)[C@@](C(=O)OC)(c3cc4c(cc3OC)N(C=O)[C@H]3[C@@](O)(C(=O)OC)[C@H](OC(C)=O)[C@]5(CC)C=CCN6CC[C@]43[C@@H]65)C2)C1` [VINCRISTINE] as the compound, how does the IC50 [29] read?
Answer: 30.4 µM
